In ChEMBL document CHEMBL1201862, “PubChem BioAssay data set” (2004):
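Step 1: Grow cells in 96-well plates. Step 2: Expose to compound for 48 hours at 5 concentrations. Step 3: Interpolate endpoints linearly; if unreached, use highest concentration. Here, GI50 denotes the concentration required for 50% inhibition of growth.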 Activity calls are given as the source filed them. Cut-off read from the data, not from the text of the source: active = GI50 up to about 1.1 µM and inactive = higher. Numbered stars: 1 amine (or outer) side, 2 acyl side, 3 side chain; on linkers, the order of the positions; unused ones are H or OH. Bridge positions count the residues as written; N and C are the ends. Square brackets hold non-standard residues; d marks the D form. Peptide text beside a SMILES is read from it. X58 = COc1c(N[*:1])cccc1C(=O)O[C@H](C(=O)[C@H](C)C(=O)[*:2])C(C)C; X57 = CC(C)C[C@H](C(=O)[*:2])C(C)C(=O)C1CCCN1[*:1]; NMeY = CN[C@@H](Cc1ccc(O)cc1)C(=O)O; Lac = C[C@H](O)C(=O)O

Assays:
Assay in all cases: NCI-60 cell line screen, 48 h
Malme-3M = system: Malme-3M
HT-29 = system: HT-29
SK-MEL-2 = system: SK-MEL-2
SK-MEL-5 = system: SK-MEL-5
786-0 = system: 786-0
KM12 = system: KM12
K562 = system: K562
NCI-H460 = system: NCI-H460
SF-295 = system: SF-295
MDA-N = system: MDA-N
NCI/ADR-RES = system: NCI/ADR-RES
IGROV-1 = system: IGROV-1
HOP-92 = system: HOP-92
SF-268 = system: SF-268
ACHN = system: ACHN
OVCAR-8 = system: OVCAR-8
A498 = system: A498
NCI-H23 = system: NCI-H23
CCRF-CEM = system: CCRF-CEM
Hs-578T = system: Hs-578T

SMILES | GI50 (Malme-3M) | GI50 (HT-29) | GI50 (SK-MEL-2) | GI50 (SK-MEL-5) | GI50 (786-0) | GI50 (KM12) | GI50 (K562) | GI50 (NCI-H460) | GI50 (SF-295) | GI50 (MDA-N) | GI50 (NCI/ADR-RES) | GI50 (IGROV-1) | GI50 (HOP-92) | GI50 (SF-268) | GI50 (ACHN) | GI50 (OVCAR-8) | GI50 (A498) | GI50 (NCI-H23) | GI50 (CCRF-CEM) | GI50 (Hs-578T)
CC(C)(C)OC/C=C1\C(=O)O[C@H]2C[C@@H](O[Si](C)(C)C(C)(C)C)C[C@@H]12 | > 100 µM (inactive) | 73.6 µM (inactive) | > 100 µM (inactive) | > 100 µM (inactive) | > 100 µM (inactive) | 67.9 µM (inactive) | 26.1 µM (inactive) | > 100 µM (inactive) | 48.6 µM (inactive) | 90.4 µM (inactive) | 88.1 µM (inactive) | > 100 µM (inactive) | 36.4 µM (inactive) | > 100 µM (inactive) | > 100 µM (inactive) | 81.1 µM (inactive) | > 100 µM (inactive) | 52.4 µM (inactive) | 33.9 µM (inactive) | 
O=C(Cc1csc(N/N=C2\C(=O)Nc3ccccc32)n1)Nc1ccccc1 |  | 27 µM (inactive) | 91.8 µM (inactive) | 15.3 µM (inactive) | 17.7 µM (inactive) | 29.2 µM (inactive) |  | 31.6 µM (inactive) | 28.9 µM (inactive) |  | 20 µM (inactive) | 11.9 µM (inactive) | 35.7 µM (inactive) | 17.7 µM (inactive) | 21.6 µM (inactive) | 21.1 µM (inactive) | 40.6 µM (inactive) | 38.9 µM (inactive) |  | 
COc1cc(-c2cc(=O)c3cc(C)c(C)c(C(=O)O)c3o2)cc(OC)c1OC | > 100 µM (inactive) | > 100 µM (inactive) | > 100 µM (inactive) | > 100 µM (inactive) | > 100 µM (inactive) | > 100 µM (inactive) | > 100 µM (inactive) | > 100 µM (inactive) | > 100 µM (inactive) |  |  | > 100 µM (inactive) | > 100 µM (inactive) | > 100 µM (inactive) | > 100 µM (inactive) | > 100 µM (inactive) | > 100 µM (inactive) | > 100 µM (inactive) | > 100 µM (inactive) | 
Cn1c(=N)n[n+]([O-])c2ccccc21 |  | 1.68 µM (inactive) | 2.22 µM (inactive) | 1.83 µM (inactive) | 4.24 µM (inactive) | 19.9 µM (inactive) | 1.59 µM (inactive) |  | 2.98 µM (inactive) | 1.9 µM (inactive) |  | 3.59 µM (inactive) |  |  | 4.9 µM (inactive) | 13 µM (inactive) |  | 2.07 µM (inactive) | 3.01 µM (inactive) | 
CCCCCC(=O)NC(=S)Nc1nnn[nH]1 | > 100 µM (inactive) |  | > 100 µM (inactive) | > 100 µM (inactive) | > 100 µM (inactive) | > 100 µM (inactive) | > 100 µM (inactive) | > 100 µM (inactive) | > 100 µM (inactive) | > 100 µM (inactive) |  | > 100 µM (inactive) | > 100 µM (inactive) | > 100 µM (inactive) | > 10 µM (inactive) |  | > 100 µM (inactive) | > 100 µM (inactive) | > 100 µM (inactive) | > 100 µM (inactive)
C=Cn1c([N+](=O)[O-])cnc1/C=C/c1ccc(C(=O)OCCN2CCOCC2)cc1 | 61 µM (inactive) | > 100 µM (inactive) | > 100 µM (inactive) | 51.9 µM (inactive) | > 100 µM (inactive) | > 100 µM (inactive) | > 100 µM (inactive) | > 100 µM (inactive) | > 100 µM (inactive) |  | > 100 µM (inactive) | > 100 µM (inactive) | > 100 µM (inactive) | > 100 µM (inactive) | > 100 µM (inactive) | > 100 µM (inactive) | 75.5 µM (inactive) | > 100 µM (inactive) | > 100 µM (inactive) | 88.1 µM (inactive)
C[C@H](C(O)CC(=O)C(C)(C)O)[C@H]1CC[C@@]2(C)[C@@H]3CC[C@H]4C(C)(C)[C@@H](OC5OC(COC6OC(CO)C(O)C(O)C6O)C(O)C(O)C5O)CC[C@]4(C)C3=CC[C@]12C (some centres not stated) | > 100 µM (inactive) | > 100 µM (inactive) | > 100 µM (inactive) | > 100 µM (inactive) | > 100 µM (inactive) | > 100 µM (inactive) | > 100 µM (inactive) | > 100 µM (inactive) | > 100 µM (inactive) | > 100 µM (inactive) |  | > 100 µM (inactive) | > 100 µM (inactive) | > 100 µM (inactive) | > 100 µM (inactive) | > 100 µM (inactive) | > 100 µM (inactive) | > 100 µM (inactive) | > 100 µM (inactive) | > 100 µM (inactive)
CCOC(=O)c1c(SCCCN2CCCCC2)n(-c2ccccc2)c(=S)n(-c2ccccc2)c1=O | 16.3 µM (inactive) | 20.3 µM (inactive) | 16.7 µM (inactive) | 16.4 µM (inactive) | 3.87 µM (inactive) | 19.2 µM (inactive) | 5.48 µM (inactive) |  |  | 15 µM (inactive) |  |  | 14.4 µM (inactive) | 37.5 µM (inactive) | 20.6 µM (inactive) | 19.3 µM (inactive) | 20.1 µM (inactive) | 18.6 µM (inactive) | 15.3 µM (inactive) | 20.9 µM (inactive)
CC(=O)Nc1ccc(N2C(=O)/C(=C\c3cccc(Oc4ccccc4)c3)S(=O)(=O)C2c2ccccc2)cc1 (configuration not stated) | > 100 µM (inactive) | 41.5 µM (inactive) | > 100 µM (inactive) | 57.5 µM (inactive) | > 100 µM (inactive) | > 100 µM (inactive) | 37.3 µM (inactive) | > 100 µM (inactive) | 89.5 µM (inactive) | 27.2 µM (inactive) | 37.2 µM (inactive) | 51.2 µM (inactive) | 55.2 µM (inactive) |  | 74.1 µM (inactive) | 35.7 µM (inactive) | > 100 µM (inactive) | > 100 µM (inactive) | 27.7 µM (inactive) | 
O=C1Nc2ccc(Cl)cc2C(=O)N2CCC[C@@H]12 | > 100 µM (inactive) | > 100 µM (inactive) | > 100 µM (inactive) | > 100 µM (inactive) | > 100 µM (inactive) | > 100 µM (inactive) | > 100 µM (inactive) | > 100 µM (inactive) | > 100 µM (inactive) | > 100 µM (inactive) | > 100 µM (inactive) | > 100 µM (inactive) | > 100 µM (inactive) | > 100 µM (inactive) | > 100 µM (inactive) | > 100 µM (inactive) | > 100 µM (inactive) | > 100 µM (inactive) |  | 
O=c1c(O)c(-c2ccccc2)oc2c(CP(=O)(O)O)cccc12 | > 100 µM (inactive) |  | > 100 µM (inactive) | > 100 µM (inactive) | > 100 µM (inactive) |  | > 100 µM (inactive) | > 100 µM (inactive) | > 100 µM (inactive) | > 100 µM (inactive) |  | > 100 µM (inactive) |  |  |  |  | > 100 µM (inactive) | > 100 µM (inactive) | > 100 µM (inactive) | 
C/C=C1\CN2CCC34c5ccccc5N(C)C35OCC4(C(=O)OC)C1CC25 (configuration not stated) |  |  | 42.2 µM (inactive) | 18.4 µM (inactive) | 76.2 µM (inactive) | 37.1 µM (inactive) | 48.9 µM (inactive) | 25.5 µM (inactive) | 34.4 µM (inactive) | 46.5 µM (inactive) |  | 41.6 µM (inactive) | 28.6 µM (inactive) | > 100 µM (inactive) | 90.4 µM (inactive) |  | > 100 µM (inactive) | 56.9 µM (inactive) | 42.7 µM (inactive) | 54.8 µM (inactive)
N#Cc1ccccc1C#C/C=C\C#Cc1ccccn1 | 19.3 µM (inactive) | 18 µM (inactive) | 15 µM (inactive) | 2.99 µM (inactive) | 20.3 µM (inactive) |  |  | 20.4 µM (inactive) | 20 µM (inactive) |  | 16.6 µM (inactive) | 17 µM (inactive) | 26.9 µM (inactive) | 16.1 µM (inactive) | 29.6 µM (inactive) | 13.1 µM (inactive) |  | 12.3 µM (inactive) | 36.5 µM (inactive) | 16.4 µM (inactive)
[N-]=[N+]=CC(=O)CCC(=O)N(c1ccccc1)c1ccccc1 | > 10 µM (inactive) | > 10 µM (inactive) | 6.98 µM (inactive) | > 10 µM (inactive) | > 10 µM (inactive) | > 10 µM (inactive) | > 10 µM (inactive) | > 10 µM (inactive) | > 10 µM (inactive) | > 10 µM (inactive) |  | > 10 µM (inactive) | > 10 µM (inactive) | > 10 µM (inactive) | > 10 µM (inactive) | > 10 µM (inactive) | > 10 µM (inactive) | > 10 µM (inactive) | > 10 µM (inactive) | 
CC(=O)C(CN1C(=O)c2ccccc2C1=O)C(C)=O |  | > 100 µM (inactive) | > 100 µM (inactive) | > 100 µM (inactive) | > 100 µM (inactive) |  | > 100 µM (inactive) | > 100 µM (inactive) | > 100 µM (inactive) | > 100 µM (inactive) |  | > 100 µM (inactive) | > 100 µM (inactive) | > 100 µM (inactive) | > 100 µM (inactive) | > 100 µM (inactive) | > 100 µM (inactive) | > 100 µM (inactive) |  | > 100 µM (inactive)
COc1ccc(C[C@H]2C(=O)O[C@H](C)[C@H](NC(=O)[C@@H](CC(C)C)C(C)C(=O)C3CCCN3C(=O)[C@H](C)O)C(=O)Nc3cccc(c3OC)C(=O)O[C@@H](C(C)C)C(=O)[C@H](C)C(=O)N[C@@H](CC(C)C)C(=O)N3CCC[C@H]3C(=O)N2C)cc1 (some centres not stated) (H-[Lac][X57]T[X58]LP[NMeY](Me); ester 3-C) | > 12.5 µM (inactive) | 2.79 µM (inactive) | > 12.5 µM (inactive) | > 12.5 µM (inactive) | > 12.5 µM (inactive) | > 12.5 µM (inactive) | 0.372 µM (active) | 9.02 µM (inactive) | > 12.5 µM (inactive) | 10.1 µM (inactive) | > 12.5 µM (inactive) | > 12.5 µM (inactive) | > 12.5 µM (inactive) | > 12.5 µM (inactive) | 12.2 µM (inactive) | > 12.5 µM (inactive) |  | > 12.5 µM (inactive) |  | > 12.5 µM (inactive)
